Test results published in article PMC10060354, “Discovery of a small molecule ligand of FRS2 that inhibits invasion and tumor growth” (Cellular Oncology, 2022).
Where “and” joins values, the source holds several entries; their conditions need not be identical. Identical values can stand only once. Like-named read-outs stand apart in the source and are kept apart here.

What was measured:
[1] = Solubility at the concentration required for the biophysical assays; type: physicochemical; details: 5% DMSO
GB1-FRS2_PTB:FGFR_PEP = target: T1, GB1-FRS2_PTB:FGFR_PEP (Homo sapiens, UniProt Q8WU20); assay: nanoDSF competition assay with the FGFR peptide; type: binding; details: PTB domain:FGFR peptide 1:5; 500 μM compound
T1 construct: FRS2-PTB 11-140aa; 6xHis (N); made in house; host or cells: E. coli BL21 (DE3) for the protein
T1 sequence (Q8WU20 11-140): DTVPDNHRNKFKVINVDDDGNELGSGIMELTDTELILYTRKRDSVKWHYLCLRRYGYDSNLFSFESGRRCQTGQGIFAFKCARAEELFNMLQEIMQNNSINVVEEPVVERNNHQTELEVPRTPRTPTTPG
Method: (§1) Purified FRS2_PTB or GB1_FRS2_PTB protein tagged with 6 × Histidine residues and the B1 immunoglobulin binding domain of the streptococcal protein G (GB1) were diluted in the protein buffer (100 mM sodium phosphate, 50 mM NaCl, 0.5 mM EDTA, 50 mM arginine, 1 mM TCEP, pH 7.0) to 30 μM, GB-1 to 40 μM. FGFR_PEP, compounds or paracetamol (PARA) as negative control were dissolved at 1 mM in the protein buffer supplemented with 10% DMSO. Compound and protein were mixed at 1:1 volume ratio yielding a final concentration of 15 μM and 20 μM for FRS2_PTB/GB1_FRS2_PTB and GB1, respectively, as well as 500 μM for FGFR_PEP or compounds. The mixture was incubated for 15 min. Each compound was measured in triplicates. Protein controls were measured in six replicates in the beginning. The quality of the screen was assessed by the Z-factor. nanoDSF validation studies were performed on a Prometheus® system in high sensitivity capillaries. Samples were heated with 1 °C/min from 20 to 95 °C. Each compound was measured in triplicates. GB1-FRS2_PTB and GB1 were diluted in the protein buffer (100 mM sodium phosphate, 50 mM NaCl, 0.5 mM EDTA, 50 mM arginine, 1 mM TCEP, pH 7.0) to 30 μM. Compounds 3.3, 3.4, 3.18 as well as the 3.18 analogues were dissolved in 100% DMSO at 50 or 100 mM and further diluted to 1 mM with a final […]. FGFR_PEP was dissolved at 1 mM in the protein buffer supplemented with 10% DMSO. Compound and protein were mixed at 1:1 volume ratio yielding final concentrations of 15 μM protein and 500 μM for the compounds. FGFR_PEP was measured against both GB1-FRS2_PTB and GB1, all other compounds only against GB1-FRS2_PTB. The mixture was incubated for 15 min before measurement. The data was analyzed for both the ratio of signals at 330 and 350 nm and at 350 nm alone. For the competition assays, the PTB domain and the FGFR peptide were mixed at a 1:5 ratio, and ligand competition was assayed in the presence of 500 μM compound.

DAOY cells [2] = assay: SIA, EGF-induced cell invasion; type: cell-based, human; details: 10 µM
Method: (§2) 1000—2500 cells/well in 100 μl were seeded in 96 well Corning® Spheroid microplate (CLS4520, Sigma-Aldrich) or in cell-repellent 96 well microplate (650,790, Greiner Bio-one). SIA and analysis was performed as described before. In brief: After spheroid formation (24 – 72 h after seeding), 70 µl medium was removed and replaced with the collagen mixture (2.5 mg/ml Pure Col Collagen I (Advanced Biomatrix)), DMEM 1x (from 10 × stock, Sigma, D2429) and 0.4% Sodium bicarbonate (Sigma, S8761)), resulting in a final collagen concentration of 1.75 mg/ml. Embedded spheroids were stimulated with bFGF (100 ng/ml if not otherwise stated), HGF (30 ng /ml) or EGF (20 ng/ml) and distance of invaded cells quantified 24 – 48 h after embedding. Compounds and BGJ398 were added in Dimethylsulfoxid (DMSO) and corresponding DMSO concentrations were used in control samples.

FRS2_PTB = target: T2, FRS2_PTB (Homo sapiens, UniProt Q8WU20); assay: nano differential scanning fluorimetry (nanoDSF); type: binding; details: 500 μM ligand
T2 construct: FRS2-PTB 11-140aa; 6xHis; made in house; host or cells: E. coli BL21 (DE3)
T2 sequence (Q8WU20 11-140): T1 sequence (Q8WU20 11-140)
Method: Assay establishment and pilot nanoDSF experiments were performed with a Tycho® system. Each experiment was performed by mixing the protein and ligand of interest at a 1:1 ratio and subsequent incubation for 15–30 min at room temperature. Controls of protein alone and ligand alone in identical buffer compositions as for the complex were measured accordingly. The temperature gradient ranged from 35 to 95 °C, and the heating rate was 30 °C/min. Inflection temperatures TI were calculated from the first derivative of the spectra obtained at the ratio of the signals at 350 nm to those at 330 nm. ΔTI of a complex was calculated as following: ΔTI,complex = TI,complex – TI,protein.
The in-built software version 1.1.5.668 (NanoTemper Technologies, Munich, Germany) and Microsoft Office Excel 365 (Microsoft Corp., Seattle, USA) was used for data analysis. Data was plotted with GraphPad Prism vers. 8.3.0 (GraphPad Software, San Diego, USA).
as §1, with “For the competition assays, the PTB domain and the FGFR peptide were mixed at a 1:5 ratio, and ligand competition was assayed in the presence of 500 μM compound.” left out

DAOY cells [3] = assay: Spheroid invasion assay (SIA), bFGF-induced collagen I invasion; type: cell-based, human; details: DAOY cells, n = 3 technical replicas, read-out: EC50 for the inhibition of bFGF-induced collagen I invasion
Method: as §2

GB1-FRS2-PTB = target: T3, GB1-FRS2-PTB (Homo sapiens, UniProt Q8WU20); assay: Microscale thermophoresis (MST); type: binding
T3 construct: FRS2-PTB 11-140aa; 6xHis (N); made in house; host or cells: E. coli BL21 (DE3)
T3 sequence (Q8WU20 11-140): T1 sequence (Q8WU20 11-140)
Method: Protein labeling for MST was performed with the 2nd Generation BLUE-NHS dye. GB1-FRS2_PTB- was labelled at 20 μM with 60 μM dye and incubated for 30 min in the dark at room temperature. The labelling was performed in the protein buffer without arginine supplementation. It was rebuffered to protein buffer (100 mM sodium phosphate, 50 mM NaCl, 0.5 mM EDTA, 50 mM arginine, 1 mM TCEP, pH 7.0). The dye was subsequently removed by gravitational flow chromatography and the protein concentration determined by UV-spectroscopy. The assay was established with the FGFR_PEP. […] A total volume of 10 μl of 50 nM labelled protein was added to 10 μl of the peptide dilution series for a final labelled protein concentration of 25 nM. The samples were incubated for 15 min at RT. […] Temperature was set to 25 °C. Each measurement was repeated twice. The interaction was measured in duplicates for the non-DMSO-supplemented buffer and in triplicates for DMSO-supplemented buffer. […] The samples were incubated for 15 min, and MST assessed as described above. Each measurement was repeated twice. The interaction was measured in two independent duplicates. […] The mixture was then measured for their initial fluorescence once. MST-experiments were performed with MO.Control vers. 1.6 (NanoTemper Technologies, Munich, Germany) and data analyzed with MO.Analysis vers. 2.3 (NanoTemper Technologies, Munich, Germany). Data was plotted with GraphPad Prism vers. 8.3.0 (GraphPad Software, San Diego, USA).

SMILES | solubility for biophysical assays (result in words) [1] | nanoDSF competition with FGFR peptide (result in words) (GB1-FRS2_PTB:FGFR_PEP) | effect on EGF-induced cell invasion (result in words) (DAOY cells [2]) | nanoDSF shift of the inflection point of the melting curve (ΔTm) (FRS2_PTB) [°C] | EC50 (DAOY cells [3]) [µM] | EC50 (DAOY cells [3]; Homo sapiens, Daoy) [µM] | Kd (GB1-FRS2-PTB; GB1-FRS2_PTB, read-out: KD, initial fluorescence change analysis) | binding by MST trace analysis (result in words) (GB1-FRS2-PTB; signal:noise ratio > 5 counts as binding)
O=[N+]([O-])c1c(Cl)cc(O)c2c1C1C=CCC1C(c1ccccc1)N2 (stereo not drawn) [Compound 9] | soluble in 5% DMSO | negative shift in compound-mixed samples | only moderately reduced | – | – | – | – | –
O=[N+]([O-])c1c(Cl)cc(O)c2c1C1C=CCC1C(C1CC=CCC1)N2 (stereo not drawn) [Compound 3.18] | – | negative shift in compound-mixed samples | only moderately reduced | < -2 | 1.29 | 1.29 | 110 µM and 140 µM and 110 to 140 µM | no binding was detected
O=[N+]([O-])c1c(Cl)cc(O)c2c1C1C=CCC1C(c1ccc(Br)cc1)N2 (stereo not drawn) [Compound 2] | soluble in 5% DMSO | negative shift in compound-mixed samples | – | – | – | – | – | –
